Consider 5 compounds from US10561667B2, “Orbit azine-fumarate, hydrate, crystal form and preparation method therefor” (SHENZHEN ZHENXING MEDICAL TECHNOLOGY CO., LTD., priority 2015, dated 2020).

Molecules are shown by their SMILES.

Data set [1] concerns human colorectal cancer cell SW480. Description: MTT proliferation inhibition, SW480. The format is cell-based. An excerpt:
(§1) The tumor cells included, but were not limited to the following cells: human colorectal cancer cell SW480, human gastric adenocarcinoma cell MGC-803, human […], human lymphoma cell U937, human liver cancer cell Hep-G2, human cervical cancer cell Hela, human neuroglioma cell BT-325, human medulloblastoma D341 Med, and human gallbladder cancer cell GBC-SD.
(§2) Experimental method: cells in exponential growth phase were collected, and seeded to a 96-well cell culture plate, at a final concentration of 5×10^3 cells/90 μl/well. […] After the treatment for 72 h, 10 μl MTT solution (5 mg/ml, Sigma) was added to each well, and the cells were further cultured for 4 h. The culture medium was discarded, 100 μl DMSO was added to each well, and dissolution was carried out under rotation on a shaking table for 10 min.

For the next data set, the system named is human lymphoma cell U937. The experiment in a line: MTT proliferation inhibition, U937. The format is cell-based.
Description: as §1, §2

Data set [2] has as its system human medulloblastoma D341 Med. The experiment in a line: MTT proliferation inhibition, D341 Med. The format is cell-based. Particulars: 72 h.
Description: as §1, §2

Data set [3] is described as follows: Stability of crystal forms in sodium phosphate/hydrochloric acid buffer pH=6.8 (37° C.). The format is physicochemical. As to conditions: for Purity: pH = 6.8 buffer, 37° C. The procedure:
1. Test on Stability of Crystal Forms in Different Media
1.1 Stability of Different Crystal Forms in Sodium Phosphate/Hydrochloric Acid Buffer pH=6.8 (37° C.)

Data set [4] concerns human gastric adenocarcinoma cell MGC-803. The experiment in a line: MTT proliferation inhibition, MGC-803. It counts as cell-based. Particulars: MGC-803, MTT.
Description: as §1, §2

Data set [5] has as its system human neuroglioma cell BT-325. The experiment in a line: MTT proliferation inhibition, BT-325. The format is cell-based. Particulars: BT-325, MTT, 72 h.
Description: as §1, §2

Data set [6] concerns human gallbladder cancer cell GBC-SD. Description: MTT proliferation inhibition, GBC-SD. The format is cell-based. Particulars: 72 h.
Description: as §1, §2

In data set [7] the test system is human cervical cancer cell Hela. The experiment in a line: MTT proliferation inhibition, Hela. The format is cell-based. As to conditions: 72 h.
Description: as §1, §2

The nature of a further data set: Hygroscopicity. The format is physicochemical. The method, then:
(§3) 3.2 Change in Appearance and Hygroscopicity (10 Days)
Hygroscopicity was measured by reference to methods in Appendix X IX J Laboratory Procedure on Determination of Hygroscopicity of Drugs in Pharmacopoeia of The People's Republic of China (2010).

Data set [8] deals with human small cell lung adenocarcinoma cell A549. The experiment in a line: MTT proliferation inhibition, A549. The format is cell-based.
Description: as §1, §2

A short description of data set [9]: Affect factor test: related substance and transformation in crystal form (10 days). The format is physicochemical. Particulars: for Purity, High temperature (60° C.) / Purity, High humidity (RH = 92.5%) / Purity, Illumination (ultraviolet lamp): 10 days; for Crystal form: after 10 days at high temperature, high humidity or illumination; for Purity of raw material: before the affect factor test (baseline); for Stability of purity: high temperature, high humidity, or illumination, 10 days later. An excerpt:
(§4) 3. Affect Factor Test of Different Crystal Forms
3.1 Related Substance and Transformation in Crystal Form (10 Days)

The test system of data set [10] is human liver cancer cell Hep-G2. The experiment in a line: MTT proliferation inhibition, Hep-G2. The format is cell-based.
Description: as §1, §2

Data set [11] in a line: Affect factor test: change in appearance (10 days). It counts as physicochemical.
Description: as §4, §3

The nature of data set [12]: Stability of crystal forms in hydrochloric acid solution pH=1.2 (37° C.). The format is physicochemical. As to conditions: for Purity: pH = 1.2 hydrochloric acid solution, 37° C.; for Change of purity: stirred in hydrochloric acid medium pH=1.2 for 24 h. The method, then: 1.2 Stability of Different Crystal Forms in Hydrochloric Acid Solution with pH=1.2 (37° C.)
Where [13] appears, read: 72 h, listed as an amorphous form.
Where [14] appears, read: 0 h (baseline), monofumarate monohydrate.

`C=CCc1cccc(/C=N/NC(=O)CN2CCCN(Cc3ccccc3)CC2)c1O` [Amorphous form, orbit azine monofumarate]: the IC50 – broadly, the concentration that inhibits the measured activity by half – is 1780 nM in data set [1] (setting [13]); 418 nM with human lymphoma cell U937 (setting [13]); 447 nM in data set [2] (listed as an amorphous form); 1600 nM in data set [4] (setting [13]); 2520 nM in data set [5] (listed as an amorphous form); 6580 nM in data set [6] (listed as an amorphous form). The IC50 in [7] (listed as an amorphous form) came to 5650 nM; in data set [8] (setting [13]) it was 2970 nM; in data set [10] (setting [13]), 8380 nM. For the same compound, the Purity in data set [3] (0 h (baseline)) was found to be 97.980%; in data set [3] (4 h) it was 87.266%; in data set [3] (24 h) it was 85.026%. In the data set “Hygroscopicity” (2014 Nov. 17 to 2014 Nov. 24), the “Hygroscopicity, weight increase/%” value was 118.620%. The “Hygroscopicity” value in the data set “Hygroscopicity” (moisture absorption) is listed as “significant weight increase”. Further, the “Purity, High temperature (60° C.)” value in [9] came to 95.989%. Besides, the “Purity, High humidity (RH = 92.5%)” value in [9] is on record as 97.537%. Moreover, in data set [9], the Crystal form result is on record as “converted to Form B under the condition of high humidity”. In [9], the “Purity of raw material” value was found to be 97.980%. In data set [9], the “Purity, Illumination (ultraviolet lamp)” value is recorded as 96.880%.

`C=CCc1cccc(/C=N/NC(=O)CN2CCCN(Cc3ccccc3)CC2)c1O` [Form A, orbit azine monofumarate]: the IC50 is 1770 nM in data set [1] (72 h); 425 nM with human lymphoma cell U937 (72 h); 433 nM in data set [2]; 1360 nM in [4] (72 h); 2880 nM in data set [5]; 6480 nM in [6]. The values for the IC50 in data set [7], in [8] (72 h) and in data set [10] (72 h) were 5680 nM, 2990 nM and 8410 nM, respectively. In addition, the Appearance entry in data set [11] (High humidity), in data set [11] (High temperature) and in [11] (Illumination) was “white solid” throughout. The Purity in [3] (0 h (baseline)) is given as 98.069%; in data set [3] (4 h), 87.153%; in [3] (24 h) it was 84.864%. For the same compound, the “Water absorbability” value in “Hygroscopicity” (product of Example 1) was “no water absorbability”. Moreover, in [9], the “Purity, High temperature (60° C.)” value is 97.665%. Also, in data set [9], the “Purity, High humidity (RH = 92.5%)” value turned out to be 97.699%. Also, the Crystal form entry in data set [9] is reported as “Form A”. Besides, the “Purity of raw material” value in [9] is on record as 98.096%. In addition, the “Stability of purity” value in [9] was “relatively stable”. The “Purity, Illumination (ultraviolet lamp)” value in [9] is reported as 97.775%.

In the case of `C=CCc1cccc(/C=N/NC(=O)CN2CCCN(Cc3ccccc3)CC2)c1O` [Form B, orbit azine monofumarate monohydrate], the IC50 was 1980 nM in [1] (72 h, monofumarate monohydrate); 495 nM in the data set with human lymphoma cell U937 (72 h, monofumarate monohydrate); 430 nM in [2] (monofumarate monohydrate); 1390 nM in data set [4] (72 h, monofumarate monohydrate); 2310 nM in data set [5] (monofumarate monohydrate); 6160 nM in [6] (monofumarate monohydrate). The IC50 was 5760 nM in [7] (monofumarate monohydrate); 2900 nM in [8] (72 h, monofumarate monohydrate); 8320 nM in [10] (72 h, monofumarate monohydrate). Moreover, the Appearance result in data set [11] (High humidity, monofumarate monohydrate) is listed as “white solid”; in data set [11] (High temperature, monofumarate monohydrate), “white solid”; in [11] (Illumination, monofumarate monohydrate) it was “white solid”. For the same compound, the “Degradation in the medium with pH=6.8” value in data set [3] (pH = 6.8, 37° C.) is listed as “degraded to a slightly less extent”. Further, the Purity was 98.413% in data set [3] (setting [14]); 93.112% in [3] (4 h, monofumarate monohydrate); 90.266% in data set [3] (24 h, monofumarate monohydrate); 98.413% in data set [12] (setting [14]); 79.443% in data set [12] (24 h, monofumarate monohydrate); 78.122% in data set [12] (48 h, monofumarate monohydrate). In addition, in data set [12] (hydrochloric acid medium pH=1.2), the “Extent of degradation compared” value is recorded as “degraded to a slightly less extent”. Also, the “Change of purity” value in data set [12] was “decreased greatly”. The “Purity, High temperature (60° C.)” value in data set [9] (monofumarate monohydrate) was found to be 97.809%. Besides, the “Purity, High humidity (RH = 92.5%)” value in data set [9] (monofumarate monohydrate) is on record as 98.176%. Further, the Crystal form entry in [9] (monofumarate monohydrate) is reported as “Form B”. Besides, in data set [9] (monofumarate monohydrate), the “Purity of raw material” value turned out to be 98.413%. Also, in [9], the “Stability of purity” value was “relatively stable”. In data set [9] (monofumarate monohydrate), the “Purity, Illumination (ultraviolet lamp)” value came out at 98.116%.

As for `C=CCc1cccc(/C=N/NC(=O)CN2CCCN(Cc3ccccc3)CC2)c1O` [Form C, orbit azine difumarate], the IC50 in data set [1] (72 h) was 1920 nM; in the data set with human lymphoma cell U937 (72 h), 391 nM; in data set [2] it was 411 nM; in data set [4] (72 h), 1280 nM; in data set [5], 2650 nM; in data set [6] it was 6370 nM. In addition, the values for the IC50 in [7], in data set [8] (72 h) and in [10] (72 h) were 5490 nM, 3070 nM and 8210 nM, respectively. In addition, the “Change of color” value in data set [11] was “turned slightly yellow”. Besides, the Appearance entry in [11] (High humidity) and in data set [11] (High temperature) was “white solid” in each case. Moreover, the Purity was determined as 94.584% in data set [3] (0 h (baseline)); 83.292% in data set [3] (4 h); 82.680% in [3] (24 h); 97.865% in [12] (0 h (baseline)); 72.042% in [12] (24 h); 71.017% in [12] (48 h). Moreover, in data set [12], the “Change of purity” value is “decreased greatly”. The “Purity, High temperature (60° C.)” value in data set [9] is reported as 97.244%. In data set [9], the “Purity, High humidity (RH = 92.5%)” value was 97.733%. In data set [9], the Crystal form entry is given as “Form C”. Moreover, in data set [9], the “Purity of raw material” value came out at 97.865%. Also, the “Purity, Illumination (ultraviolet lamp)” value in [9] stood at 95.696%.

Turning to `C=CCc1cccc(/C=N/NC(=O)CN2CCCN(Cc3ccccc3)CC2)c1O` [Form D, orbit azine difumarate], the IC50 in data set [1] (Homo sapiens, SW480, 72 h) was 1670 nM; with human lymphoma cell U937 (Homo sapiens, U-937, 72 h), 414 nM; in data set [2] (Homo sapiens), 484 nM; in data set [4] (Homo sapiens, MGC-803, 72 h) it was 1450 nM; in [5] (Homo sapiens), 2710 nM; in data set [6] (Homo sapiens) it was 6950 nM. Besides, the IC50 was 5170 nM in data set [7] (Homo sapiens, HeLa); 2870 nM in data set [8] (Homo sapiens, A549, 72 h); 8180 nM in [10] (Homo sapiens, HepG2, 72 h). For the same compound, the Purity stood at 97.999% in [3] (0 h (baseline)), 85.418% in data set [3] (4 h) and 84.552% in data set [3] (24 h).
